Measured values published in patent US20220351806A1, “Biomarker Panels for Guiding Dysregulated Host Response Therapy” (Endpoint Health Inc., priority 2019, published 2022).

System: sepsis patients
Test: VANISH trial survival analysis, hydrocortisone vs placebo, by patient subtype classifier
Assay type: in vivo, human
Design: mortality reduction in the placebo group in comparison to the hydrocortisone group / Mortality rate: concentration or dose not given beside the values
Settings: for Alive / Dead / Mortality rate / Survival rate / Mortality Reduction Group: VANISH trial; for Alive / Dead / Mortality rate / Survival rate: Hydro group; for 28-day mortality reduction in the placebo group in comparison to the hydrocortisone group: VANISH; for Mortality Reduction Group: arm with lower mortality, Hydro vs Placebo
Source text: The test expression data from each trial were normalized by the platform normalization matrix described above^13 so that the test data were more consistent with the training data. The classifiers (e.g., the Full Model, the SS Model, the S Model, and the P Model) were then applied to the normalized data such that the patients were classified into A, B, and C subtypes. […] Therefore, each sample in the target samples was normalized independently with the normalization matrix of the sample array platform.
Survival and mortality rates were calculated at day 28 because survival and mortality labels at other time points were not available. […] Binomial and Chi-squared with continuity correction tests were used to test for the significance of these differences.
In one example, previously identified subtypes of sepsis patients were used to tune the model to identify these type A and B patients. Two distinct sepsis response signatures (SRS1 and SRS2) were identified in five public studies (E-MTAB-4421, E-MTAB-4451, E-MTAB-5273, E-MTAB-5274, and E-MTAB-7581), where HumanHT-12 v4 BeadChip were used to generate the gene expression profiles of the patient samples. The processed data of those five studies were downloaded and processed using R programming language and software environment for statistical analysis (version 3.6.3). The Bioconductor annotation package, illuminaHumanv4.db (version 1.26.0), was used to annotate microarray probes and expression levels of genes were determined by each individual probe or mean of probes belonging to the same gene. In order to remove cohort biases, the Bioconductor package, limma (version 3.42.2), was used to remove batch effects. Using ss.b2 panel genes, subtype A, B, and C scores were calculated by geometric mean of up/down genes.
To build the classifier, we defined E-MTAB-4421, E-MTAB-4451, E-MTAB-5273, and E-MTAB-5274 as the training dataset and VANISH (E-MTAB-7581) as the testing dataset. We used features (subtype A, B, and C scores) and class labels (SRS1 vs SRS2) in the training dataset to build a machine-learned classifier based on support-vector machine (SVM) method. SVM is a supervised machine learning method for classification analysis. The algorithm finds a single or a set of hyperplanes that maximize the margin among subtype A, B, and C scores. In order to capture non-linear data, the kernel function was used. R package e1071 was used to build the SVM classifier with following parameters: method=“C-classification”, kernal=“radial”, gamma=0.1, and cost=10.
The accuracy of the classifiers was evaluated by Leave-One-Out (LOO) cross-validation over the training dataset. Also the classifier was applied to 117 controlled samples from VANISH trial.
In addition to the SVM-method, thresholds can be employed to scores in order to define A vs. B labels. […] Therefore we applied a heuristic threshold (threshold=0) to subtype A and B scores to classify SRS1-like and SRS2-like in VANISH: SRS2-like label was assigned to samples with subtype A score >0 and subtype B score <0 and SRS1-like label was assigned to the rest of samples.
Besides the heuristic threshold, we also derived the thresholds for subtype A and B scores using the training dataset. Same as the SVM method, we defined E-MTAB-4421, E-MTAB-4451, E-MTAB-5273, and E-MTAB-5274 as the training dataset and VANISH (E-MTAB-7581) as the testing dataset.

[1] = day 28, Full Model, subtypes CA
[2] = day 28, SS.B2 Model (SVM), Total
[3] = day 28, SS.B2 Model (SVM), type A (SRS2-like)
[4] = day 28, SS.B2 Model (SVM), type B (SRS1-like)

Question: For `C[C@]12CCC(=O)C=C1CC[C@@H]1[C@@H]2[C@@H](O)C[C@@]2(C)[C@H]1CC[C@]2(O)C(=O)CO` [Hydro, hydrocortisone], which Alive (day 28, Full Model, subtype C) is on record?
Answer: 11

Question: What about the Dead (day 28, Full Model, subtype C) of the same molecule?
Answer: 8

Question: And the Mortality rate (day 28, Full Model, subtype C)?
Answer: 42.1%

Question: And the Survival rate (day 28, Full Model, subtype C)?
Answer: 57.9%

Question: What about the Alive [1] of the same molecule?
Answer: 20

Question: And the Dead [1]?
Answer: 16

Question: And the Mortality rate [1]?
Answer: 44.4%

Question: What about the Survival rate [1] of the same molecule?
Answer: 55.6%

Question: And the Alive (day 28, P Model, Total)?
Answer: 36

Question: What about the Dead (day 28, P Model, Total) of the same molecule?
Answer: 22

Question: What about the Mortality rate (day 28, P Model, Total) of the same molecule?
Answer: 37.9%

Question: What about the Survival rate (day 28, P Model, Total) of the same molecule?
Answer: 62.1%

Question: What about the Alive (day 28, P Model, subtype A) of the same molecule?
Answer: 9

Question: What about the Dead (day 28, P Model, subtype A) of the same molecule?
Answer: 10

Question: What about the Mortality rate (day 28, P Model, subtype A) of the same molecule?
Answer: 52.6%

Question: What about the Survival rate (day 28, P Model, subtype A) of the same molecule?
Answer: 47.4%

Question: What about the Alive (day 28, P Model, subtype B) of the same molecule?
Answer: 23

Question: What about the Dead (day 28, P Model, subtype B) of the same molecule?
Answer: 8

Question: What about the Mortality rate (day 28, P Model, subtype B) of the same molecule?
Answer: 25.8%

Question: What about the Survival rate (day 28, P Model, subtype B) of the same molecule?
Answer: 74.2%

Question: What about the Alive (day 28, P Model, subtype C) of the same molecule?
Answer: 4

Question: What about the Dead (day 28, P Model, subtype C) of the same molecule?
Answer: 4

Question: What about the Mortality rate (day 28, P Model, subtype C) of the same molecule?
Answer: 50.0%

Question: What about the Survival rate (day 28, P Model, subtype C) of the same molecule?
Answer: 50.0%

Question: And the Alive (day 28, P Model, subtypes CA)?
Answer: 13

Question: And the Dead (day 28, P Model, subtypes CA)?
Answer: 14

Question: And the Mortality rate (day 28, P Model, subtypes CA)?
Answer: 51.9%

Question: What about the Survival rate (day 28, P Model, subtypes CA) of the same molecule?
Answer: 48.1%

Question: What about the Alive (day 28, S Model, Total) of the same molecule?
Answer: 20

Question: What about the Dead (day 28, S Model, Total) of the same molecule?
Answer: 13

Question: What about the Mortality rate (day 28, S Model, Total) of the same molecule?
Answer: 39.4%

Question: And the Survival rate (day 28, S Model, Total)?
Answer: 60.6%

Question: What about the Alive (day 28, S Model, subtype A) of the same molecule?
Answer: 16

Question: What about the Dead (day 28, S Model, subtype A) of the same molecule?
Answer: 9

Question: And the Mortality rate (day 28, S Model, subtype A)?
Answer: 36.0%

Question: What about the Survival rate (day 28, S Model, subtype A) of the same molecule?
Answer: 64.0%

Question: And the Alive (day 28, S Model, subtype B)?
Answer: 12

Question: And the Dead (day 28, S Model, subtype B)?
Answer: 9

Question: What about the Mortality rate (day 28, S Model, subtype B) of the same molecule?
Answer: 42.9%

Question: What about the Survival rate (day 28, S Model, subtype B) of the same molecule?
Answer: 57.1%

Question: What about the Alive (day 28, S Model, subtype C) of the same molecule?
Answer: 8

Question: And the Dead (day 28, S Model, subtype C)?
Answer: 4

Question: And the Survival rate (day 28, S Model, subtype C)?
Answer: 66.7%

Question: And the Alive (day 28, S Model, subtypes CA)?
Answer: 8

Question: And the Dead (day 28, S Model, subtypes CA)?
Answer: 4

Question: And the Survival rate (day 28, S Model, subtypes CA)?
Answer: 66.7%

Question: What about the Alive (day 28, SS Model, Total) of the same molecule?
Answer: 36

Question: And the Dead (day 28, SS Model, Total)?
Answer: 22

Question: What about the Mortality rate (day 28, SS Model, Total) of the same molecule?
Answer: 37.9%

Question: What about the Survival rate (day 28, SS Model, Total) of the same molecule?
Answer: 62.1%

Question: And the Alive (day 28, SS Model, subtype A)?
Answer: 15

Question: And the Dead (day 28, SS Model, subtype A)?
Answer: 9

Question: What about the Mortality rate (day 28, SS Model, subtype A) of the same molecule?
Answer: 37.5%

Question: And the Survival rate (day 28, SS Model, subtype A)?
Answer: 62.5%

Question: And the Alive (day 28, SS Model, subtype B)?
Answer: 5

Question: What about the Dead (day 28, SS Model, subtype B) of the same molecule?
Answer: 5

Question: What about the Mortality rate (day 28, SS Model, subtype B) of the same molecule?
Answer: 50.0%

Question: And the Survival rate (day 28, SS Model, subtype B)?
Answer: 50.0%

Question: And the Alive (day 28, SS Model, subtype C)?
Answer: 16

Question: What about the Dead (day 28, SS Model, subtype C) of the same molecule?
Answer: 8

Question: And the Survival rate (day 28, SS Model, subtype C)?
Answer: 66.7%

Question: What about the Alive (day 28, SS Model, subtypes CA) of the same molecule?
Answer: 31

Question: And the Dead (day 28, SS Model, subtypes CA)?
Answer: 17

Question: What about the Survival rate (day 28, SS Model, subtypes CA) of the same molecule?
Answer: 64.6%

Question: And the Alive [2]?
Answer: 36

Question: What about the Dead [2] of the same molecule?
Answer: 22

Question: And the Mortality rate [2]?
Answer: 37.9%

Question: And the Survival rate [2]?
Answer: 62.1%

Question: What about the Alive [3] of the same molecule?
Answer: 22

Question: And the Dead [3]?
Answer: 14

Question: What about the Mortality rate [3] of the same molecule?
Answer: 38.9%

Question: And the Survival rate [3]?
Answer: 61.1%

Question: And the Alive [4]?
Answer: 14

Question: And the Dead [4]?
Answer: 8

Question: And the Mortality rate [4]?
Answer: 36.4%

Question: And the Survival rate [4]?
Answer: 63.6%

Question: And the “28-day mortality reduction in the placebo group in comparison to the hydrocortisone group” value (SRS2-like patients by ROC-derived thresholds (A threshold=-0.2664, B threshold=0.3179))?
Answer: 81.7%

Question: What about the “28-day mortality reduction in the placebo group in comparison to the hydrocortisone group” value (SRS2-like patients by heuristic threshold=0 (A score >0, B score <0)) of the same molecule?
Answer: 85.2%

Question: What about the “Mortality Reduction Group” value (day 28, Full Model, Total) of the same molecule?
Answer: Placebo

Question: What about the “Mortality Reduction Group” value (day 28, Full Model, subtype A) of the same molecule?
Answer: Placebo

Question: What about the “Mortality Reduction Group” value (day 28, Full Model, subtype B) of the same molecule?
Answer: Hydro

Question: And the “Mortality Reduction Group” value (day 28, Full Model, subtype C)?
Answer: Placebo

Question: What about the “Mortality Reduction Group” value [1] of the same molecule?
Answer: Placebo

Question: What about the “Mortality Reduction Group” value (day 28, P Model, Total) of the same molecule?
Answer: Placebo

Question: What about the “Mortality Reduction Group” value (day 28, P Model, subtype A) of the same molecule?
Answer: Placebo

Question: What about the “Mortality Reduction Group” value (day 28, P Model, subtype B) of the same molecule?
Answer: Hydro

Question: And the “Mortality Reduction Group” value (day 28, P Model, subtype C)?
Answer: Placebo

Question: And the “Mortality Reduction Group” value (day 28, P Model, subtypes CA)?
Answer: Placebo

Question: And the “Mortality Reduction Group” value (day 28, SS Model, Total)?
Answer: Placebo

Question: And the “Mortality Reduction Group” value (day 28, SS Model, subtype A)?
Answer: Placebo

Question: What about the “Mortality Reduction Group” value (day 28, SS Model, subtype B) of the same molecule?
Answer: Placebo

Question: And the “Mortality Reduction Group” value (day 28, SS Model, subtype C)?
Answer: Placebo

Question: What about the “Mortality Reduction Group” value (day 28, SS Model, subtypes CA) of the same molecule?
Answer: Placebo

Question: And the “Mortality Reduction Group” value [2]?
Answer: Placebo

Question: And the “Mortality Reduction Group” value [3]?
Answer: Placebo

Question: What about the “Mortality Reduction Group” value [4] of the same molecule?
Answer: Hydro

Question: What about the “lower mortality in the placebo group when compared to the hydrocortisone therapy group” value (sepsis patients, 28-day, subtype A, Full Model) of the same molecule?
Answer: 64.6%

Question: And the “lower mortality in the placebo group when compared to the hydrocortisone therapy group” value (sepsis patients, 28-day, subtype A, P Model)?
Answer: 77.6%

Question: And the “lower mortality in the placebo group when compared to the hydrocortisone therapy group” value (sepsis patients, 28-day, subtype A, S Model)?
Answer: 86.1%

Question: And the “lower mortality in the placebo group when compared to the hydrocortisone therapy group” value (sepsis patients, 28-day, subtype A, SS Model)?
Answer: 86.0%

Question: What about the “lower mortality in the hydrocortisone group when compared to the placebo group” value (sepsis patients, 28-day, subtype B, Full Model) of the same molecule?
Answer: 35.2%

Question: And the “lower mortality in the placebo group when compared to the hydrocortisone therapy group” value (sepsis patients, 28-day, subtype C, Full Model)?
Answer: 56.8%
